Measured values as given in patent US12390423B2 (priority 2019, dated 2025).
“Also recorded” adds a separate entry of the source.

Experiments:
[1] = Treatment model of diet-induced obesity (DIO) in mice: body and fat pad weights; format: in vivo, C57BL/6J mice; conditions: HFD mice, AvoB 100 mg/kg b.w. oral gavage twice weekly for 5 weeks, vs HFD-control
Experimental: For the treatment study, twelve-week-old male C57BL/6J mice were purchased from Jackson Laboratory (Bar Harbor, ME) and allowed to acclimatize for 1 week. After acclimatization, mice received either a high-fat diet (HFD) (60% kcal from lard; Research Diet D12492; Research Diets, USA) or a standard diet (10-13% kcal from fat; Teklad 2014; Envigo, USA) for eight weeks. […] Animal weights were monitored twice weekly. At study completion, animals were euthanized (10-12 h into their dark cycle) via CO2 followed by exsanguination, after which tissue and blood was collected.

[2] = Complete blood count and plasma FFA/TAG in DIO mice; format: in vivo
Experimental: Complete blood count with differential (CBC w/diff) analysis was done on 500 μL of whole blood by the animal health laboratory at the University of Guelph. Plasma insulin, FFAs, and triacylglycerols (TAGs) were measured using a rat/mouse insulin ELISA kit (Millipore, Rat/Mouse Insulin Detection kit), FFA fluorometric assay kit (Cayman, MI, USA), and the TAG colorimetric assay kit (Cayman, MI, USA), respectively. Manufacturer's protocols were followed for all kits.

[3] = system: INS-1 (832/13) cells; test: Glucose oxidation (D-[14C(U)]-glucose) in INS-1 (832/13) cells; format: cell-based, rat; conditions: 25 μM AvoB, lipotoxic conditions, vs palmitate only
Experimental: C2C12 myotubes and INS-1 (832/13) cells treated as in the FAO assays described above and then incubated with D-[^14C(U)]-glucose (0.58 μC/mL) and unlabeled glucose (final glucose concentration 200 μM) for 4 h subsequent to which [^14C]—CO2 (representing complete glucose oxidation) and ASMs (representing incomplete glucose oxidation) were captured and quantified as described in the FAO method. For C2C12 myotubes, glucose oxidation and uptake was measured with and without a 30 min pre-incubation with 100 nM insulin to determine basal and insulin-mediated glucose oxidation or uptake, respectively.

[4] = system: INS-1 (832/13) cells; test: Glucose stimulated insulin secretion (GSIS) in INS-1 (832/13) cells; format: cell-based, rat; conditions: 0.5 mM palmitate 24 h, AvoB 25 μM, ETO 100 μM
Experimental: To measure glucose stimulated insulin secretion (GSIS) in INS-1(832/13) cells a standard protocol was adopted. […] After treatments were complete, cell media was replaced with KRB (Krebs-Ringer Bicarbonate) buffer. Cells were then challenged with 3 mM glucose for 2 h in KRB buffer after which 500 μL KRB buffer was collected and frozen in −80° C. until analysis. For another 2 h, cells were challenged with 16 mM glucose after which 500 μL KRB was collected and frozen in −80° C. until analysis. The amount of insulin released into the KRB buffer was determined by an ELISA kit (Millipore, Rat/Mouse Insulin Detection kit). Data was normalized for cellular protein content, as determined by the Micro-BCA Protein Assay kit. The glucose-dependent insulin secretory index (GSIS16/3), defined as the ratio between the insulin secretion at 16 mM (stimulatory, surrogate to postprandial glucose levels) and 3 mM (basal, surrogate to fasting glucose levels) glucose was also calculated.

[5] = system: AMPK activation and mitochondrial biogenesis; test: Immunoblotting (pAMPKα, PGC-1α) and NAO mitochondrial mass in INS-1 (832/13) cells; format: cell-based, rat; conditions: 25 μM AvoB, 24 h
Experimental: For all ROS studies, INS-1 (832/13) cells and C2C12 myotubes were treated with or without palmitate and FAO inhibitors for 24 h in low glucose cell culture media as described for the FAO assay. After treatment, cells were trypsinized and re-suspended in PBS containing 5 μM of the fluorescent dye MitoSOX® (Molecular Probes, Invitrogen) and allowed to incubate for 5-15 minutes in a humidified atmosphere containing 5% CO2 at 37° C. Cells were then washed in PBS, placed in a 96 well plate and fluorescence was measured by flow cytometry. ROS was quantified by normalizing the mean fluorescence values of live gated cells to vehicle control. Mitochondrial membrane potential (MMP) in INS-1 (832/13) and C2C12 myotubes was measured using the cationic fluorescent dye JC-1 (Molecular Probes). […] JC-1 fluoresces green in the cytosol where it exists as a monomer, after entering the mitochondria JC-1 monomers form J aggregates and fluoresce red, thus the red/green fluorescence ratio is used to determine MMP. […] Cells were then washed in PBS, placed in a 96 well plate and fluorescence was measured by flow cytometry. MMP was quantified by normalizing the mean fluorescence values of live gated cells to vehicle control. […] Cells were treated, washed and collected as described and incubated with 0.35 μM NAO and green fluorescence was measured using flow cytometry. […]

[6] = ad libitum HFD mice, AvoB 100 mg/kg b.w. twice weekly, vs control-HFD, endpoint

avocatin B [AvoB]
Gonadal and mesenteric fat pad (GFP and MFP) weights [1]: reductions in both gonadal and mesenteric fat pad (GFP and MFP) weights | Mouse weight at study completion [1]: weighed significantly less than HFD-control mice | Blood markers of toxicity (CBC w/diff) ([2]; HFD mice, AvoB 100 mg/kg b.w. twice weekly for 5 weeks, study endpoint): no effect on blood markers of toxicity | Plasma free fatty acids (FFA) [2, 6]: increased plasma levels of FFA | Plasma triacylglycerols (TAG) [2, 6]: increased | Glucose oxidation (D-[14C(U)]-glucose to CO2) [3]: greater glucose oxidation compared to cells treated with palmitate only | Glucose stimulated insulin secretion (GSIS) [4]: rescued; also recorded: GSIS was higher | AMPK activation (pAMPKα-Thr172) [5]: independent of AMP-activated protein kinase (AMPK) activation | Mitochondrial biogenesis (PGC-1α protein, NAO dye) [5]: independent
